Measurements as given in article PMC4608580, “Synthesis and Evaluation of Biological Activity of Antimicrobial – Pro-Proliferative Peptide Conjugates” (PLoS ONE, 2015).

How the values were obtained:
HaCaT keratinocytes = experiment: Cell migration assay (in vitro scratch test); format: cell-based, human; settings: 25 μg/mL, 24 h, serum-free DMEM, Mitomycin C 5 μg/mL, vs. control without peptide, three independent experiments
Method: Fibroblasts and keratinocytes were seeded (5x10^5 cells/well) in 6-well plates. When desired monolayer confluence was reached, cells were starved for 24 hours in serum-free DMEM. The monolayer was scratched then with 200μL-pipette tip. The floating cells and cell debris were removed by double washing in PBS, further replaced with a fresh serum-free medium. Wounded monolayers were incubated for the next 24 h in the presence of tested peptides used at concentration of 25 μg/mL and 5 μg/mL of Mitomycin C (Sigma Aldrich) to prevent proliferation. At the end of the experiment medium was removed and the cells were fixed with 3.7% PFA for 5 min, stained for the next 30 min with 0.05% crystal violet solution, washed several times with distilled water and the plates were left inverted for a couple of minutes to drain. The wounded areas were then photographed by means of Zeiss Observer D1 microscope equipped with camera AxioCam and analyzed with AxioVision software (Carl Zeiss, Germany). Migration activity of the cells treated with the tested peptides were expressed as the percentage of the wounded area with respect to the control probe (cell cultures without any of the peptide), assumed as 100%.
An in vitro scratch test was performed to investigate the effect of the analyzed compounds on keratinocytes and fibroblasts migration. Evaluation was based on the efficiency of the invasion of the monolayer cells to the prewounded area within 24 h after stimulation with the appropriate compound added at concetration of 25μg/mL.
Fig 2 Effect of the peptides on HaCaT keratinocytes and fibroblasts cell migration in the in vitro scratch test. HaCaT cells and fibroblasts were grown in 6-well plates until the 100% confluence was reached, then cells were starved for the next 12 hours in DMEM without 10% FCS and scratched once vertically with a 200μL pipette tip. After being washed two times with sterile PBS, a fresh portion of DMEM medium was added and cells were treated with the tested peptides applied at their optimal doses (25 μg/mL). Migration was analyzed after 24 hours by means of Zeiss Observer D1 microscope, wounding areas were analyzed with AxioVision software and expressed as the percentage of the wound width in comparison to the control sample (cells incubated in DMEM without FCS). Control+ FCS corresponds to the sample with cells incubated in the medium containing 10% FCS and was treated as the additional positive control. Data represent the mean ± SD of three independent experiments. *P < 0.05, **P < 0.01, ***P < 0.001 vs. control.

[1] = test system: immortalized human HaCaT keratinocytes; experiment: Cell proliferation assay (MTT); format: cell-based; settings: 72 h, serum-free DMEM, whole range 1–50 μg/mL, vs. control without peptide, triplicate
Method: In our study two kind of cells were used: immortalized human HaCaT keratinocytes (DKFZ Heidelberg, Germany) and primary dermal fibroblasts obtained from 3 healthy donors. Both types of the used cell lines were grown in Dulbecco's modified Eagle's medium (DMEM) (Sigma–Aldrich, Germany), that contained […] of glucose, […] of L-glutamine, sodium pyruvate and sodium bicarbonate. Additionally, medium was supplemented with 10% of FCS (fetal calf serum, Sigma-Aldrich, Germany), 100 U/mL of penicillin and 100 μg/mL streptomycin (Sigma-Aldrich, Germany). The cells were grown in culture dishes (BD, USA) under standard conditions in a humidified atmosphere with 5% CO2 at 37°C and medium was changed every 2 days.
The fibroblasts and keratinocytes were seeded at density of 4500 and 6000 cells per well, respectively, into 96-well plates suspended in a medium supplemented with 10% of FCS. After 24 h the media were exchanged with serum- and antibiotic- free DMEM and tested peptides dissolved in PBS were added yielding final concentration ranging from 1 to 50 μg/mL. Cells were incubated for the next 24 hours, when the medium was exchanged again and fresh portion of peptides (used at the same concentrations as previously) was added. Incubation was continued for the next 48 hours (the overall time of cell exposition to peptide was 72 h). At the end of the experiment cells were treated with 20 μL of MTT (5 mg/mL in PBS). After 3 h at 37°C under 5% CO2 medium was discarded and replaced by 6mM HCl in isopropanol. After 15 min when the purple crystals of formazan were fully solubilized, absorbance was read at 570 nm with a plate reader. The optical density reflects the level of cell viability as MTT is converted in purple formazan product only in the presence of viable mitochondria of the living cells.
Fig 1 Pro-proliferative activity of the tested peptides towards human keratinocytes (A) and fibroblasts (B). Cells were incubated for 72 hours in serum-free DMEM medium in the presence of peptides applied at concentrations of 1,10, 25 and 50 μg/mL, respectively. The data represents results of MTT assay expressed as the percentage of the cell viability in comparison to their control sample (cells incubated in serum-free DMEM without tested peptides), additional positive control corresponds to the cells incubated in the presence of 10% FCS. All experiments were performed independently in triplicate. *P < 0.05, **P < 0.01, ***P < 0.001 vs. control.
In order to evaluate a long-term effect of peptides, experiments were carried out for 72 hours. Before addition of the tested compounds, the cell medium was exchanged for the fresh one not containing any serum or antibiotic.

carnosine [reference compound]
Effect on keratinocyte migration (scratch test), in words (HaCaT keratinocytes): best results
Effect on HaCaT cell viability/proliferation (MTT), in words [1]: non-toxic
